The source of these data is patent US20140178305A1, “IDENTIFICATION AND USE OF ANXIOLYTIC COMPOUNDS” (CALIFORNIA INSTITUTE OF TECHNOLOGY, priority 2012, published 2014).

The subject of one assay is MRGPRB4+ fibres. Put plainly: Two-photon in vivo calcium imaging (GCaMP3.0) of central afferent fibres through a spinal cord laminectomy, chemical stimuli. Further details: species or system mouse. The method, then:
(§1) Mice expressing reporters and/or Cre recombinase targeted to the MrgprB4 locus were generated by homologous recombination in embryonic stem cells, according to standard procedures. Heterozygous neonates from MrgprD-Cre and MrgprB4-Cre mice were injected intraperitoneally with Cre-dependent AAV8 viruses expressing GCaMP3.0 or mGCaMP3.0 or hM3(Gq-coupled) DREADD, and imaged as adults (≧8 weeks old).
(§2) Electrophysiology experiments on ex vivo skin-nerve preparations from adult heterozygous Mrgprb4-EGFPf reporter mice were performed as described in Woodbury, et al. J. Comp. Neurol. 436, 304-323 (2001). For calcium imaging, after a dorsal laminectomy the spinal column was stabilized and filled with imaging solution (see below for details). Imaging was performed using a two-photon laser-scanning microscope (Ultima, Prairie Inc.) using an Olympus 40×0.8 N.A. water immersion objective, at 128×128 pixel resolution with an acquisition rate of 8-12 frames per second. Mechanical stimuli were delivered using a custom-modified No. 5 sable paint brush or serrated forceps, in a manner electronically time-stamped to image acquisition, as may be seen in FIGS. 18A-18C and further discussed below. Stimuli were delivered to each mouse in a series of trials, separated by a few minutes; each trial consisted of one or more stimuli delivered typically at intervals of several seconds. Chemical stimuli were delivered to the spinal cord using a Pipetman pipette and to the periphery using a syringe pump. Calcium responses were analysed using custom software written in Matlab (see below for more details). For calculating ΔF/F [(Fav−F0)/F0], F0 is the average of the first ten frames of the recording period.
(§3) Mice 2 months or older were sedated by i.p. injection of a mix of ketamine (100 mg/kg), xylazine (15 mg/kg), acepromazine (2.5 mg/kg in 0.9% NaCl). During surgery, body temperature was maintained at 37° C. with a heating blanket.
(§4) A dorsal laminectomy was performed mostly at spinal level L2-L4 (but occasionally at L1-L3) as described in Johannssen, et al. J. Physiol. (Lond.) 588:3397-3402 (2010), but without removing the dura. The spinal column was stabilized using Narishige STS-A spinal clamps. In addition a head-holding adaptor from Kopf (923-B Mouse Gas Anaesthesia Head Holder) was used that has installed an anaesthesia/gas mask for positioning the mouse head. In this apparatus the gas is applied through a standard hose barb positioned above the nose on the mask. The inlet fills a large gas chamber around the snout, a second hose barb below the mask is provided for vacuuming off excess, expelled gasses. The animals were maintained under continuous anaesthesia for the duration of the imaging experiments with 1-2% isofluorane or with hourly injections of the above ketamine mix. A well was built around the exposed spinal cord using Gelseal (Amersham Biosciences Corp) and Kwik Sil Adhesive (WPI). Warm imaging solution (in mM: 130 NaCl, 3 KCl, 2.5 CaCl2, 0.6 6H2O.MgCl2, 10 HEPES without Na, 1.2 NaHCO3, 10 glucose, pH7.45 with NaOH) (37° C.) was repeatedly applied to prevent drying and maintain tissue integrity, and to allow the use of immersion objectives. During imaging the body temperature of the animals was maintained at 37° C. with a heating blanket and an air-therm heater (WPI) placed inside the microscope area.
(§5) Imaging experiments were performed under a two-photon laser-scanning microscope (Ultima, Prairie Instruments Inc.). Live images were acquired at 8-12 frames per second, at depths below the pia ranging from 100 to 250 μm, using an Olympus 40×0.8 N.A. water immersion objective, at 128×128 pixel resolution with a laser tuned to 940 nm wavelength, and emission filters 525/50 nm and 595/50 nm for green and red fluorescence, respectively. Laser power was adjusted to be 20-25 mW at the focal plane (maximally 35 mW), depending on the imaging depth and level of expression of GCaMP3.0. […]

The next assay relates to MRGPRD+ fibres. Described as above. Further details: species or system mouse. The method, then: as §1, §2, §3, §4, §5
In assay [1] the test system is MRGPRB4+ neurons engineered to express TRPV1. Put plainly: Calcium imaging after peripheral injection of capsaicin in MrgprB4-Cre; Rosa26-loxP-STOP-loxP-TrpV1 mice. Format: in vivo, mouse. As to conditions: adult MrgprB4-Cre, peripheral injection (10 μl of 1 mM). The method, then:
α,β-methyl ATP (10 μl from 1 mM solution) and capsaicin (10 μl from 1 mM solution (10% DMSO in saline)) was injected in the ventral and dorsal hindpaw of MrgprD and MrgprB4 mice, respectively, using a syringe pump (WPI, Inc., sp200i syringe pump). The timing of the injection was controlled by the two-photon image acquisition system and associated software (Prairie View and Trigger Sync, Prairie Technologies) to link it with image acquisition.
In the case of chemical stimulation (delivered either to the spinal cord or to the periphery), typically a single trial was performed for a given mouse, due to the difficulty of maintaining the same focal plane during the period of application of the chemical to the spinal cord or the period required for diffusion of the liquid bolus delivered for peripheral injection, respectively. In these cases, therefore, the MPI ΔF/Fpeak before and during the stimulation period were calculated for multiple mice imaged using ROIs of similar size, and were compared for statistical significance (relative to pre-stimulus baseline) by repeated measures ANOVA, followed by Bonferroni-corrected post-hoc comparison of means (unless stated otherwise). The ΔF/F values in FIGS. 11B and 11E were corrected for photobleaching as described in Berry, et al. Neuron 74:530-542 (2012). […]

Where [2] appears, read: direct application to the spinal cord, KCl 60 mM, n=3.
[3] abbreviates: injection into the dorsal (hairy) skin of the hindpaw (10 μl of 1 mM), n=3.
The mark [4] stands for this setting: injection into the glabrous skin of the hind paw (10 μl of 1 mM), n=3.
The mark [5] stands for this setting: spinal application, 5 mM, mean ± range, n=2.

As to `[Cl-].[K+]` [KCl], the “activation of fibres after application to the spinal cord (positive control)” value with MRGPRB4+ fibres (KCl, same field of view as the CNO test in GCaMP3.0-only mice) is “robust activation”. The “mean latency to peak (MLP)” value with MRGPRB4+ fibres (setting [2]) was 9.3 ± 4.15 s; in the assay with MRGPRD+ fibres (setting [2]) it was 8.6 ± 3.6 s. For the same compound, the “mean percent increase in peak ΔF/F (MPI ΔF/Fpeak)” value in the assay on MRGPRB4+ fibres (setting [2]) is given as 201.6±33.2%; in the assay on MRGPRD+ fibres (direct application to the spinal cord, KCl 60 mM, mean ± s.e.m., n=3), 222±19%.
Take `COc1cc(CNC(=O)CCCC/C=C/C(C)C)ccc1O` [capsaicin]: the “calcium transients evoked by peripheral injection” value is reported as “induced robust calcium transients” in assay [1] and “no such signals were observed” with MRGPRB4+ fibres (control MrgprB4-Cre mice without TRPV1, peripheral injection).
Take `Nc1ncnc2c1ncn2[C@@H]1O[C@H](COP(=O)(O)CP(=O)(O)OP(=O)(O)O)[C@@H](O)[C@H]1O` [α,β Me-ATP, α,β-methylene (Me) ATP]: the MLP came out at 21.9 ± 12.6 s with MRGPRB4+ fibres (setting [3]), 25.7 ± 10.5 s in the assay on MRGPRD+ fibres (setting [4]) and 16.3±1.3 with MRGPRD+ fibres (setting [5]). Moreover, the figures for the “MPI [ΔF/F]peak” value in the assay on MRGPRB4+ fibres (setting [3]), in the assay on MRGPRD+ fibres (setting [4]) and in the assay with MRGPRD+ fibres (setting [5]) were 142±0.6%, 137±51% and 249±54%, respectively. The “calcium transients evoked by peripheral injection” value with MRGPRB4+ fibres (mice expressing GCaMP3.0 but not TRPV1 in MrgprB4+ neurons, FIG. 8F) is “exhibit calcium transients”. In the assay on MRGPRD+ fibres (MrgD mice, FIG. 7E), the “calcium response after application to the spinal cord” value is “induced a strong calcium response”.
